# System: 843126-344-R-J1-PDC complex spheroid viability
# Experiment: Anticancer human tumor 843126-344-R-J1-PDC patient-derived melanoma cell line growth inhibition [POLQ]
# Conditions: second compound 0.316 µM; first compound 0.1 µM; active compounds read low
# Summary of the method: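 Growth inhibition in 3D: complex spheroids (tumor PDC, HUVEC, MSC) treated with POLQ inhibitor combinations; where Cmax unknown, highest tested concentration 10 microM, except SN-38 at 1 microM.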
# 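Note: spheroids exposed to drugs for seven days before readout.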
row,SMILES,"viability, T/C [%]"
1,C=CCn1c(=O)c2cnc(Nc3ccc(N4CCN(C)CC4)cc3)nc2n1-c1cccc(C(C)(C)O)n1 + Cc1cccc(N(C)C(=O)C2C(O)CCN2c2nc(C)cc(C(F)(F)F)c2C#N)c1,93.3
2,CC[C@@]1(O)C(=O)OCc2c1cc1n(c2=O)Cc2cc3c(CN(C)C)c(O)ccc3nc2-1 + Cc1cccc(N(C)C(=O)C2C(O)CCN2c2nc(C)cc(C(F)(F)F)c2C#N)c1,58.5
3,CCc1c2c(nc3ccc(O)cc13)-c1cc3c(c(=O)n1C2)COC(=O)[C@]3(O)CC + Cc1cccc(N(C)C(=O)C2C(O)CCN2c2nc(C)cc(C(F)(F)F)c2C#N)c1,58.6
4,CNCc1ccc(-c2[nH]c3cc(F)cc4c3c2CCNC4=O)cc1 + Cc1cccc(N(C)C(=O)C2C(O)CCN2c2nc(C)cc(C(F)(F)F)c2C#N)c1,98
5,Cn1ncnc1[C@H]1c2n[nH]c(=O)c3cc(F)cc(c23)N[C@@H]1c1ccc(F)cc1 + Cc1cccc(N(C)C(=O)C2C(O)CCN2c2nc(C)cc(C(F)(F)F)c2C#N)c1,86.5
6,O=C(c1cc(Cc2n[nH]c(=O)c3ccccc23)ccc1F)N1CCN(C(=O)C2CC2)CC1 + Cc1cccc(N(C)C(=O)C2C(O)CCN2c2nc(C)cc(C(F)(F)F)c2C#N)c1,78.8

# Same assay, conditions: second compound 0.316 µM; first compound 0.316 µM; active compounds read low
row,SMILES,"viability, T/C [%]"
1,C=CCn1c(=O)c2cnc(Nc3ccc(N4CCN(C)CC4)cc3)nc2n1-c1cccc(C(C)(C)O)n1 + Cc1cccc(N(C)C(=O)C2C(O)CCN2c2nc(C)cc(C(F)(F)F)c2C#N)c1,89.3
2,CCc1c2c(nc3ccc(O)cc13)-c1cc3c(c(=O)n1C2)COC(=O)[C@]3(O)CC + Cc1cccc(N(C)C(=O)C2C(O)CCN2c2nc(C)cc(C(F)(F)F)c2C#N)c1,53.6
3,CNCc1ccc(-c2[nH]c3cc(F)cc4c3c2CCNC4=O)cc1 + Cc1cccc(N(C)C(=O)C2C(O)CCN2c2nc(C)cc(C(F)(F)F)c2C#N)c1,82.6
4,O=C(c1cc(Cc2n[nH]c(=O)c3ccccc23)ccc1F)N1CCN(C(=O)C2CC2)CC1 + Cc1cccc(N(C)C(=O)C2C(O)CCN2c2nc(C)cc(C(F)(F)F)c2C#N)c1,89.4

# Same assay, conditions: second compound 0.316 µM; first compound 1 µM; active compounds read low
row,SMILES,"viability, T/C [%]"
1,C=CCn1c(=O)c2cnc(Nc3ccc(N4CCN(C)CC4)cc3)nc2n1-c1cccc(C(C)(C)O)n1 + Cc1cccc(N(C)C(=O)C2C(O)CCN2c2nc(C)cc(C(F)(F)F)c2C#N)c1,73.7
2,CCc1c2c(nc3ccc(O)cc13)-c1cc3c(c(=O)n1C2)COC(=O)[C@]3(O)CC + Cc1cccc(N(C)C(=O)C2C(O)CCN2c2nc(C)cc(C(F)(F)F)c2C#N)c1,43.6
3,CNCc1ccc(-c2[nH]c3cc(F)cc4c3c2CCNC4=O)cc1 + Cc1cccc(N(C)C(=O)C2C(O)CCN2c2nc(C)cc(C(F)(F)F)c2C#N)c1,90.2
4,O=C(c1cc(Cc2n[nH]c(=O)c3ccccc23)ccc1F)N1CCN(C(=O)C2CC2)CC1 + Cc1cccc(N(C)C(=O)C2C(O)CCN2c2nc(C)cc(C(F)(F)F)c2C#N)c1,91.5

# Same assay, conditions: second compound 0.316 µM; first compound 3.16 µM; active compounds read low
row,SMILES,"viability, T/C [%]"
1,CNCc1ccc(-c2[nH]c3cc(F)cc4c3c2CCNC4=O)cc1 + Cc1cccc(N(C)C(=O)C2C(O)CCN2c2nc(C)cc(C(F)(F)F)c2C#N)c1,77.3
2,O=C(c1cc(Cc2n[nH]c(=O)c3ccccc23)ccc1F)N1CCN(C(=O)C2CC2)CC1 + Cc1cccc(N(C)C(=O)C2C(O)CCN2c2nc(C)cc(C(F)(F)F)c2C#N)c1,82

# Same assay, conditions: second compound 0.316 µM; first compound 10 µM; active compounds read low
row,SMILES,"viability, T/C [%]"
1,CNCc1ccc(-c2[nH]c3cc(F)cc4c3c2CCNC4=O)cc1 + Cc1cccc(N(C)C(=O)C2C(O)CCN2c2nc(C)cc(C(F)(F)F)c2C#N)c1,69.7
2,O=C(c1cc(Cc2n[nH]c(=O)c3ccccc23)ccc1F)N1CCN(C(=O)C2CC2)CC1 + Cc1cccc(N(C)C(=O)C2C(O)CCN2c2nc(C)cc(C(F)(F)F)c2C#N)c1,75.7

# Same assay, conditions: second compound 1 µM; first compound 0.000316 µM; active compounds read low
row,SMILES,"viability, T/C [%]"
1,CC[C@@]1(O)C(=O)OCc2c1cc1n(c2=O)Cc2cc3c(CN(C)C)c(O)ccc3nc2-1 + Cc1cccc(N(C)C(=O)C2C(O)CCN2c2nc(C)cc(C(F)(F)F)c2C#N)c1,78.1
2,Cn1ncnc1[C@H]1c2n[nH]c(=O)c3cc(F)cc(c23)N[C@@H]1c1ccc(F)cc1 + Cc1cccc(N(C)C(=O)C2C(O)CCN2c2nc(C)cc(C(F)(F)F)c2C#N)c1,73.2

# Same assay, conditions: second compound 1 µM; first compound 0.001 µM; active compounds read low
row,SMILES,"viability, T/C [%]"
1,CC[C@@]1(O)C(=O)OCc2c1cc1n(c2=O)Cc2cc3c(CN(C)C)c(O)ccc3nc2-1 + Cc1cccc(N(C)C(=O)C2C(O)CCN2c2nc(C)cc(C(F)(F)F)c2C#N)c1,113
2,Cn1ncnc1[C@H]1c2n[nH]c(=O)c3cc(F)cc(c23)N[C@@H]1c1ccc(F)cc1 + Cc1cccc(N(C)C(=O)C2C(O)CCN2c2nc(C)cc(C(F)(F)F)c2C#N)c1,67.6

# Same assay, conditions: second compound 1 µM; first compound 0.00316 µM; active compounds read low
row,SMILES,"viability, T/C [%]"
1,C=CCn1c(=O)c2cnc(Nc3ccc(N4CCN(C)CC4)cc3)nc2n1-c1cccc(C(C)(C)O)n1 + Cc1cccc(N(C)C(=O)C2C(O)CCN2c2nc(C)cc(C(F)(F)F)c2C#N)c1,86
2,CC[C@@]1(O)C(=O)OCc2c1cc1n(c2=O)Cc2cc3c(CN(C)C)c(O)ccc3nc2-1 + Cc1cccc(N(C)C(=O)C2C(O)CCN2c2nc(C)cc(C(F)(F)F)c2C#N)c1,89.3
3,CCc1c2c(nc3ccc(O)cc13)-c1cc3c(c(=O)n1C2)COC(=O)[C@]3(O)CC + Cc1cccc(N(C)C(=O)C2C(O)CCN2c2nc(C)cc(C(F)(F)F)c2C#N)c1,66.6
4,Cn1ncnc1[C@H]1c2n[nH]c(=O)c3cc(F)cc(c23)N[C@@H]1c1ccc(F)cc1 + Cc1cccc(N(C)C(=O)C2C(O)CCN2c2nc(C)cc(C(F)(F)F)c2C#N)c1,92.6

# Same assay, conditions: second compound 1 µM; first compound 0.01 µM; active compounds read low
row,SMILES,"viability, T/C [%]"
1,C=CCn1c(=O)c2cnc(Nc3ccc(N4CCN(C)CC4)cc3)nc2n1-c1cccc(C(C)(C)O)n1 + Cc1cccc(N(C)C(=O)C2C(O)CCN2c2nc(C)cc(C(F)(F)F)c2C#N)c1,102
2,CC[C@@]1(O)C(=O)OCc2c1cc1n(c2=O)Cc2cc3c(CN(C)C)c(O)ccc3nc2-1 + Cc1cccc(N(C)C(=O)C2C(O)CCN2c2nc(C)cc(C(F)(F)F)c2C#N)c1,90.3
3,CCc1c2c(nc3ccc(O)cc13)-c1cc3c(c(=O)n1C2)COC(=O)[C@]3(O)CC + Cc1cccc(N(C)C(=O)C2C(O)CCN2c2nc(C)cc(C(F)(F)F)c2C#N)c1,58.5
4,Cn1ncnc1[C@H]1c2n[nH]c(=O)c3cc(F)cc(c23)N[C@@H]1c1ccc(F)cc1 + Cc1cccc(N(C)C(=O)C2C(O)CCN2c2nc(C)cc(C(F)(F)F)c2C#N)c1,86.8

# Same assay, conditions: second compound 1 µM; first compound 0.0316 µM; active compounds read low
row,SMILES,"viability, T/C [%]"
1,C=CCn1c(=O)c2cnc(Nc3ccc(N4CCN(C)CC4)cc3)nc2n1-c1cccc(C(C)(C)O)n1 + Cc1cccc(N(C)C(=O)C2C(O)CCN2c2nc(C)cc(C(F)(F)F)c2C#N)c1,111

# Reference: PubChem BioAssay AID1963837 (Molecular Pharmacology Branch, DTP, NCI, 2024)
